This is an account of results in ChEMBL document CHEMBL5463729, “Data for DCP probe BAY 1753011” (2023).

The target of one assay is Vasopressin V1a receptor (Homo sapiens, UniProt P37288). In words: Assay with bioluminescence detection (AVPR1). (The vasopressin receptor cells react to stimulation of the recombinantly expressed V1a receptors by intracellular release of calcium ions, which can be quantified by the resulting photoprotein luminescence). It is filed as functional, cell-based, CHO-K1.
Assay [1] has as its target Calcium/calmodulin-dependent protein kinase type 1B (Homo sapiens) (UniProt Q6P2M8). The experiment in a line: Inhibition of CaMKIbeta(h) at 10.0 µM in the Eurofins Kinase panel. Conditions: Compound concentration 10.0 uM; call rule not given here.
Assay [2] has as its target Calcium/calmodulin-dependent protein kinase type II subunit delta (Homo sapiens) (UniProt Q13557). In words: Inhibition of CaMKIIdelta(h) at 10.0 µM in the Eurofins Kinase panel. Conditions: Compound concentration 10.0 uM.
Assay [3] has as its target Citron Rho-interacting kinase (Homo sapiens) (UniProt O14578). In words: Inhibition of CRIK(h) at 10.0 µM in the Eurofins Kinase panel. The conditions noted are these: Compound concentration 10.0 uM.
Assay [4] addresses Tyrosine-protein kinase Fgr (Homo sapiens) (UniProt P09769). In words: Inhibition of Fgr(h) at 10.0 µM in the Eurofins Kinase panel. Conditions: Compound concentration 10.0 uM.
In assay [5] the target is Inhibitor of nuclear factor kappa-B kinase subunit alpha (Homo sapiens) (UniProt O15111). In words: Inhibition of IKKalpha(h) at 10.0 µM in the Eurofins Kinase panel. Conditions: Compound concentration 10.0 uM.
For assay [6], the target named is RAC-beta serine/threonine-protein kinase (Homo sapiens) (UniProt P31751). The experiment in a line: Inhibition of PKBbeta(h) at 10.0 µM in the Eurofins Kinase panel. Conditions: Compound concentration 10.0 uM.
Assay [7] deals with Wee1-like protein kinase (Homo sapiens) (UniProt P30291). The experiment in a line: Inhibition of WEE1(h) at 10.0 µM in the Eurofins Kinase panel. Conditions: Compound concentration 10.0 uM.
Chain of Wee1-like protein kinase (Homo sapiens) (P30291 whole entry, looked up): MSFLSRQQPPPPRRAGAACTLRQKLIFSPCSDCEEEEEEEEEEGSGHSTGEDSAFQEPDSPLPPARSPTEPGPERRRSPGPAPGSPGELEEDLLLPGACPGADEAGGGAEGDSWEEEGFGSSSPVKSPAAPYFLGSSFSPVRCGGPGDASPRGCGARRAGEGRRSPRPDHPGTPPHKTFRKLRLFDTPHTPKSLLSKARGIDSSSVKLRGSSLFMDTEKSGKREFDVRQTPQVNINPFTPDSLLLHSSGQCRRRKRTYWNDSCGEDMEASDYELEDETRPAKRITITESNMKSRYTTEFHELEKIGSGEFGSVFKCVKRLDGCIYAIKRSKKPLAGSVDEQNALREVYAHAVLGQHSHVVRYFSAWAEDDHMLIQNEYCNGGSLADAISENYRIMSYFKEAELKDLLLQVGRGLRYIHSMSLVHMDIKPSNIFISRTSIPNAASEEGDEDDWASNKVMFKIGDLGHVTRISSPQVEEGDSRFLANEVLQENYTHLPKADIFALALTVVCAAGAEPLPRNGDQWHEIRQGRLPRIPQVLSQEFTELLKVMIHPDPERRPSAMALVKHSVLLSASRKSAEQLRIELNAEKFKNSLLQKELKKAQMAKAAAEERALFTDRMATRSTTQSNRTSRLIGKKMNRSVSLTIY
Assay [8] addresses Motilin receptor (Homo sapiens) (UniProt O43193). Conditions: Compound concentration 10.0 uM.
Assay [9] has as its target Progesterone receptor (Homo sapiens) (UniProt P06401). Conditions: Compound concentration 10.0 uM.
The target of assay [10] is T1, D(4) dopamine receptor (Homo sapiens) (UniProt P21917).
T1 sequence (whole entry): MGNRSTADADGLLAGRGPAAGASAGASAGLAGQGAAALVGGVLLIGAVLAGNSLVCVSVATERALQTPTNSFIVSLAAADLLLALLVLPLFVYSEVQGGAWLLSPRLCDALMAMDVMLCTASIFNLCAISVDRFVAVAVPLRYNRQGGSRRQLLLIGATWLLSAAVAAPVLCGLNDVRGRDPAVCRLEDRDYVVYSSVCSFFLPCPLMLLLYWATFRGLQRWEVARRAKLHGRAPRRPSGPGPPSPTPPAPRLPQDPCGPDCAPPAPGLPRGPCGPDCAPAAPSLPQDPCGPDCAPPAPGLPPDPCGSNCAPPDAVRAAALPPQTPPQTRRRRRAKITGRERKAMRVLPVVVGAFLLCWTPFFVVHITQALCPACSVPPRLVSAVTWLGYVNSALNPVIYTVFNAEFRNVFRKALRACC
The experiment in a line: Inhibition of Dopamine D4.2 at 10 µM in the Eurofins-Panlabs radioligand binding assay (Eurofins_assay_219900). Also on record: ligand concentration 0.5 nM. The conditions noted are these: Compound concentration 10.0 uM.

The target of assay [11] is Neuropeptide Y receptor type 1 (Homo sapiens) (UniProt P25929). In words: Inhibition of Neuropeptide Y Y1 at 10 µM in the Eurofins-Panlabs radioligand binding assay (Eurofins_assay_257010). Conditions: Compound concentration 10.0 uM.
Chain of Neuropeptide Y receptor type 1 (Homo sapiens) (P25929 whole entry): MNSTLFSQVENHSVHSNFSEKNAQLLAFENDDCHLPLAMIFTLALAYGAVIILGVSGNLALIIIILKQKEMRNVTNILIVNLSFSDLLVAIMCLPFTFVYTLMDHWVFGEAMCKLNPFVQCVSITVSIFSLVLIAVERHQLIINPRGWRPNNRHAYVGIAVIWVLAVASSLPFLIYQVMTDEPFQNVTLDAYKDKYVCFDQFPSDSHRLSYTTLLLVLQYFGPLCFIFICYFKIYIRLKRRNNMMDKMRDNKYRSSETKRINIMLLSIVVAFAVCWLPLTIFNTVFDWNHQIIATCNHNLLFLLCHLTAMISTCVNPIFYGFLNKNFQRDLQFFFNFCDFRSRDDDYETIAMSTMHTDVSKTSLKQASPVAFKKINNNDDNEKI
In assay [12] the target is Neuropeptide Y receptor type 2 (Homo sapiens) (UniProt P49146). The experiment in a line: Inhibition of Neuropeptide Y Y2 at 10 µM in the Eurofins-Panlabs radioligand binding assay (Eurofins_assay_257110). The conditions noted are these: Compound concentration 10.0 uM.
Chain of Neuropeptide Y receptor type 2 (Homo sapiens) (P49146 whole entry): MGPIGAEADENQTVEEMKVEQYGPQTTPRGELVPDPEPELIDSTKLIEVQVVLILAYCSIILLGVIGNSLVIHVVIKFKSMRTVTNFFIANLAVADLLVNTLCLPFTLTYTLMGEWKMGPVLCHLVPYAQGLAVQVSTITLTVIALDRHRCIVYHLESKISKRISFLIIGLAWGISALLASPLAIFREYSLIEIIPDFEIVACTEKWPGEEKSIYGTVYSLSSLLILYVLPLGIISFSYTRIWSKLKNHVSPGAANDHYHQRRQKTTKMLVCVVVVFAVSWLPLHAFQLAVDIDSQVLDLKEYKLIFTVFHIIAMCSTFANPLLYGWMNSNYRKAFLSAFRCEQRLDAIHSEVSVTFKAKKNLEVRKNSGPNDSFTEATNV
The target of assay [13] is Platelet-activating factor receptor (Homo sapiens) (UniProt P25105). In words: Inhibition of Platelet Activating Factor (PAF) at 10 µM in the Eurofins-Panlabs radioligand binding assay (Eurofins_assay_265010). Conditions: Compound concentration 10.0 uM.
The target in assay [14] is ATP-sensitive inward rectifier potassium channel 11 (Cricetulus griseus) (UniProt A0A3L7HHE1). The experiment in a line: Inhibition of Potassium Channel [KATP] at 10 µM in the Eurofins-Panlabs radioligand binding assay (Eurofins_assay_265600). Conditions: Cricetinae; Compound concentration 10.0 uM.
The target of assay [15] is 3-hydroxy-3-methylglutaryl-coenzyme A reductase (Homo sapiens) (UniProt P04035). In words: Inhibition of HMG-CoA Reductase at compound concentration of 10.0 uM in the Eurofins-Panlabs enzyme assay (Eurofins_assay_124010). Also on record: substrate with concentration. The conditions noted are these: Compound concentration 10.0 uM.
Assay [16] concerns the target Neutrophil elastase (Homo sapiens) (UniProt P08246). The experiment in a line: Inhibition of Peptidase, ELA2 (Neutrophil Elastase 2) at 10 µM in the Eurofins-Panlabs enzyme assay (Eurofins_assay_166010). The conditions noted are these: Compound concentration 10.0 uM.
Assay [17] can be described thus: Inhibition of Atrial Natriuretic Factor (ANF) at 10 µM in the Eurofins-Panlabs radioligand binding assay (Eurofins_assay_211000). Conditions: Cavia porcellus; Compound concentration 10 uM; Assay protocol publication PMID: 2408776; Detection method Radioligand Binding; Incubation temperature 4 °C; Incubation time 60 min; Ligand Bmax 0.013 pM/ mg protein; Ligand Kd 0.14 nM; Ligand [125I] ANF (rat); Ligand concentration 0.016 nM; Ligand specific binding 78 %; Non-specific ligand with concentration 0.1 µM ANF (rat); Reference compound ANF (rat); Source of ….

The species entered for the next assay is Rattus norvegicus. In words: Inhibition of Glycine, Strychnine-Sensitive at 10 µM in the Eurofins-Panlabs radioligand binding assay (Eurofins_assay_239000). Conditions: Compound concentration 10.0 uM.
Assay [18] concerns the target Melanocortin receptor 3 (Homo sapiens) (UniProt P41968). The experiment in a line: Inhibition of Melanocortin MC3 at 10 µM in the Eurofins-Panlabs radioligand binding assay (Eurofins_assay_251300). Also on record: ligand concentration 0.035 nM. Conditions: Compound concentration 10.0 uM.
Assay [19] concerns the target Aldo-keto reductase family 1 member B1 (Rattus norvegicus) (UniProt P07943). In words: Inhibition of Aldose Reductase at compound concentration of 10.0 uM in the Eurofins-Panlabs enzyme assay (Eurofins_assay_107000). The conditions noted are these: Compound concentration 10.0 uM. Also on record: substrate with concentration.
The target in assay [20] is Dual specificity protein kinase CLK4 (Homo sapiens) (UniProt Q9HAZ1). The experiment in a line: Inhibition of CLK4(h) at 10.0 µM in the Eurofins Kinase panel. The conditions noted are these: Compound concentration 10.0 uM.
Chain of Dual specificity protein kinase CLK4 (Homo sapiens) (Q9HAZ1 whole entry, looked up): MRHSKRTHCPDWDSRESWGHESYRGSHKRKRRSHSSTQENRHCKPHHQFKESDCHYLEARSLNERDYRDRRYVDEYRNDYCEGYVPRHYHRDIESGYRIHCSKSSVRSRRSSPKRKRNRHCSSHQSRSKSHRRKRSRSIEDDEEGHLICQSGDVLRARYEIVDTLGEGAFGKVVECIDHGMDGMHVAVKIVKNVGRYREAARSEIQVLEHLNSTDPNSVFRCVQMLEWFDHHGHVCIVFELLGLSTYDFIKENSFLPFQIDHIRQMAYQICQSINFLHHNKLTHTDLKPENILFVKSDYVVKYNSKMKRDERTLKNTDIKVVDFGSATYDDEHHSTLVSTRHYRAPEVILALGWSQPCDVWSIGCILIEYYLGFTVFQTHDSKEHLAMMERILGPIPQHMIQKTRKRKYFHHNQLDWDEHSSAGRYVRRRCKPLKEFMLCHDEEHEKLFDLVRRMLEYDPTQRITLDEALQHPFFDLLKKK
Assay [21] deals with cAMP-dependent protein kinase catalytic subunit beta (Homo sapiens) (UniProt P22694). The experiment in a line: Inhibition of PKACbeta(h) at 10.0 µM in the Eurofins Kinase panel. The conditions noted are these: Compound concentration 10.0 uM.
For assay [22], the target named is Rho-associated protein kinase 2 (Homo sapiens) (UniProt O75116). In words: Inhibition of ROCK-II(h) at 10.0 µM in the Eurofins Kinase panel. The conditions noted are these: Compound concentration 10.0 uM.
Chain of Rho-associated protein kinase 2 (Homo sapiens) (O75116 whole entry, looked up): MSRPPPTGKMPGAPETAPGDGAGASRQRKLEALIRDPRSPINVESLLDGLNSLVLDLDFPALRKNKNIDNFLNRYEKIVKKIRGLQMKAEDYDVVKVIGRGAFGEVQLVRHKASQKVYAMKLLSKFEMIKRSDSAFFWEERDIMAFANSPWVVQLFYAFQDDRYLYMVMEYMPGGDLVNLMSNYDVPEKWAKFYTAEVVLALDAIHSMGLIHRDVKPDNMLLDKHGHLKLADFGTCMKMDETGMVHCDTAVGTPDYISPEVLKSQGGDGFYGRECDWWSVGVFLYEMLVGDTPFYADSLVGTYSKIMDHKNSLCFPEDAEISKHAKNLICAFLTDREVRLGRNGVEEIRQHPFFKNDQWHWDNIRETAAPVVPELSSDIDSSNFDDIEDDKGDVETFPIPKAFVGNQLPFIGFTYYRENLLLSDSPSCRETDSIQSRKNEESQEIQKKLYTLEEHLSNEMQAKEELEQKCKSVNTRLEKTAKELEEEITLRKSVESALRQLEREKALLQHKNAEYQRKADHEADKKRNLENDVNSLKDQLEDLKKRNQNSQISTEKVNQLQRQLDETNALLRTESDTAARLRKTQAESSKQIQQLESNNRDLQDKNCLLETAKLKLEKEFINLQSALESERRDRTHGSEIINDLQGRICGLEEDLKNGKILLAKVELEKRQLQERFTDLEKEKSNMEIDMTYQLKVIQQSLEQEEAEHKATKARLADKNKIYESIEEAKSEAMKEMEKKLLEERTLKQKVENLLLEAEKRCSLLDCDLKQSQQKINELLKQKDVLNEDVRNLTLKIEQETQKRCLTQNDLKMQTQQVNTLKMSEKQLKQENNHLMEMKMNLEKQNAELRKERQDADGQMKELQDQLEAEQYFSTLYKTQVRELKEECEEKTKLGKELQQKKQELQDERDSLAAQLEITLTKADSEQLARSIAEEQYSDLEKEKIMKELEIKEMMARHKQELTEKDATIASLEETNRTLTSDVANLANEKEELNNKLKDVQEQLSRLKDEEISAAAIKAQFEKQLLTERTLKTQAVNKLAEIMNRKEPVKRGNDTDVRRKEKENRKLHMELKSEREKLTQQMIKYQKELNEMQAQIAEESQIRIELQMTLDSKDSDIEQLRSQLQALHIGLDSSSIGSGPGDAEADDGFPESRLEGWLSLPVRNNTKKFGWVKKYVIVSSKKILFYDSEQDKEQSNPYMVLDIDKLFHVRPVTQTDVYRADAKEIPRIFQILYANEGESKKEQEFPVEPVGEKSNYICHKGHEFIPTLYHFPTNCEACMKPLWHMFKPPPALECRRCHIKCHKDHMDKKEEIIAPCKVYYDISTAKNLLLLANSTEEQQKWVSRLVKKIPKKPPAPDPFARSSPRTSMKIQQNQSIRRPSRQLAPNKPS
The target in assay [23] is SRSF protein kinase 2 (Homo sapiens) (UniProt P78362). The experiment in a line: Inhibition of SRPK2(h) at 10.0 µM in the Eurofins Kinase panel. The conditions noted are these: Compound concentration 10.0 uM.
Assay [24] deals with Angiopoietin-1 receptor (Homo sapiens) (UniProt Q02763). In words: Inhibition of Tie2(h) at 10.0 µM in the Eurofins Kinase panel. The conditions noted are these: Compound concentration 10.0 uM.
In assay [25] the target is Serine/threonine-protein kinase tousled-like 1 (Homo sapiens) (UniProt Q9UKI8). In words: Inhibition of TLK1(h) at 10.0 µM in the Eurofins Kinase panel. Conditions: Compound concentration 10.0 uM.

Chain of Tyrosine-protein kinase Fgr (Homo sapiens) (P09769 2-529 limits assumed): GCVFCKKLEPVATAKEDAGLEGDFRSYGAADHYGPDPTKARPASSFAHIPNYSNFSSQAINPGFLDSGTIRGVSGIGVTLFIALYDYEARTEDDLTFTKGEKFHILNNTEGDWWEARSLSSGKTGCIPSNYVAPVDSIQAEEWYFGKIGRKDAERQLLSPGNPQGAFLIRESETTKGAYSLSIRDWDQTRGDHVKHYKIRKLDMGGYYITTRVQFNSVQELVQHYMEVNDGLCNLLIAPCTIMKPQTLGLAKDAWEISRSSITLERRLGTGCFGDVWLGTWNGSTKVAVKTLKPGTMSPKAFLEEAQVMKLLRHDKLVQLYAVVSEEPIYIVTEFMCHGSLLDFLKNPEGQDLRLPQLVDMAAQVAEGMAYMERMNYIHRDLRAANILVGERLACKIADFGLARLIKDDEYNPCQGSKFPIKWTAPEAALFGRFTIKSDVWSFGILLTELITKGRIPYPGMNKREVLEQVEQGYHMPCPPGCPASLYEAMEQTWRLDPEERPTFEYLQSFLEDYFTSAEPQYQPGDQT
Chain of Neutrophil elastase (Homo sapiens) (P08246 whole entry): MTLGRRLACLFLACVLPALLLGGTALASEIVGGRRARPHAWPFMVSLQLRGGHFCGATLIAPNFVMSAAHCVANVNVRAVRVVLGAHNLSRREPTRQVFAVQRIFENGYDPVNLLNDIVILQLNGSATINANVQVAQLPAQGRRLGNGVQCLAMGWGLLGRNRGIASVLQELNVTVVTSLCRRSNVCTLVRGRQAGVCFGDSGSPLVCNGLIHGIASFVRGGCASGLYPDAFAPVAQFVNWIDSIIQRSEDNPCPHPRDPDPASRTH
Chain of Progesterone receptor (Homo sapiens) (P06401 whole entry): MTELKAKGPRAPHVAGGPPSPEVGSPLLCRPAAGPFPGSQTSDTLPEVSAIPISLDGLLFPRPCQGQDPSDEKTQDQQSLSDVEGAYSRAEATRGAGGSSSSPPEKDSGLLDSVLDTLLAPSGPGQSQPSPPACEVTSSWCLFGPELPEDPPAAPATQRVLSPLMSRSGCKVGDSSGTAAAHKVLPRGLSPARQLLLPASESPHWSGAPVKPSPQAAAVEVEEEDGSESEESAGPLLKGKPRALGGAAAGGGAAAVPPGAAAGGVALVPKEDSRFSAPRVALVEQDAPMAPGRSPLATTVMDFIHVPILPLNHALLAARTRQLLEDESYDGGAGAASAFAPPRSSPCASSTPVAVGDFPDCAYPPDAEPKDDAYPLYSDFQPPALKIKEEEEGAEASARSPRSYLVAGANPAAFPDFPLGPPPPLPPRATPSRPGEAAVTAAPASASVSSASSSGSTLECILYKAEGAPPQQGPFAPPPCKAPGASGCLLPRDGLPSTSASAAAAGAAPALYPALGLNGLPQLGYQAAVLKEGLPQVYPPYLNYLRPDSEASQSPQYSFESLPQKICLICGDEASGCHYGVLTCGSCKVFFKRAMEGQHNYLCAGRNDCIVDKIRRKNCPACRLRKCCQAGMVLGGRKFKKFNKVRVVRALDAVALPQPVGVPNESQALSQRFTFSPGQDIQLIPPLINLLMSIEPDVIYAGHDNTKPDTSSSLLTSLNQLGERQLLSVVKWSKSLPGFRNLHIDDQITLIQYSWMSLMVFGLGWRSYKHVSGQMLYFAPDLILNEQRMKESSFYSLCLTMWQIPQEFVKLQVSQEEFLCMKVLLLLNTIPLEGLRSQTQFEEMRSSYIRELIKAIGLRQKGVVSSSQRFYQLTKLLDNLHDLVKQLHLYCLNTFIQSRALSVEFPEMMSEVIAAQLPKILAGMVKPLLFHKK

`O=c1n(Cc2cncn2-c2cccc(Cl)c2)nc(-c2ccc(Cl)cc2)n1C[C@H](O)C(F)(F)F`: the IC50 at Vasopressin V1a receptor is given as > 10 µM (not active). For the same compound, the inhibition in assay [1] was -8.98%; in assay [2], -4.39%; in [3], -2.08%; in assay [4], -7.12%; in assay [5] it was -2.69%; in [6] it was -3.28%. For the same compound, the inhibition in assay [7] was -5.39%; in assay [8], 12%; in assay [9], 25%.

On to `C[C@H](O)c1nc(Cn2nc(-c3ccc(Cl)cc3)n(C[C@H](O)C(F)(F)F)c2=O)nn1-c1cccc(Cl)c1` [PECAVAPTAN], for which the inhibition in assay [10] was 3%; in assay [11] it was 11%; in assay [12], 6%; in assay [13], 17%; in [14], 18%; in assay [15], 9%. Further, the inhibition in assay [16] is 1%; in the assay filed under Rattus norvegicus, 12%; in assay [18] it was 6%; in [19], 6%; in assay [20], 1.42%; in [21], -5.07%. Moreover, the inhibition was 18.1% in [22], -4.81% in [23], -8.17% in assay [24] and -3.06% in [25]. Moreover, the inhibition at 10 µM in assay [17] is 1% (not active).
